Assay results reported in paper PMC7180452, “Purine and Purine Isostere Derivatives of Ferrocene: An Evaluation of ADME, Antitumor and Electrochemical Properties” (Molecules, 2020).
Entries after “also recorded” stand apart in the source; their conditions may differ.

Tests used:
[1] = test system: metastatic colorectal adenocarcinoma (SW620); experiment: In vitro antiproliferative activity, SW620; assay type: cell-based, human; settings: SW620 cells
Method: (§1) Antiproliferative activity of compounds 11a−11c, 12a−12c, 13a−13c, 14a−14c, 15a−15c, 16a, 23a−23c, 24a−24c, 25a−25c, 34a−34c and 35a−35c was evaluated in vitro on four human tumor cell lines (American Type Culture Collection, Manassas, VA, USA): metastatic colorectal adenocarcinoma (SW620), ductal pancreatic adenocarcinoma (CFPAC-1), hepatocellular carcinoma (HepG2) and cervical carcinoma (HeLa) as well as normal skin fibroblasts (HFF).

[2] = test system: cervical carcinoma (HeLa); experiment: In vitro antiproliferative activity, HeLa; assay type: cell-based, human; settings: HeLa cells
Method: as §1

[3] = test system: normal skin fibroblasts (HFF); experiment: Cytotoxicity on non-tumor cells, HFF; assay type: cell-based, human
Method: as §1

MDCKII-hMDR1 cells = experiment: Permeability and P-gp substrate assessment in MDCKII-hMDR1 cell monolayer; assay type: in vitro ADME, canine; settings: for Permeability classification: MDCKII-hMDR1, in words; for Efflux Ratio (BA/AB) / Papp (AB) / Papp (BA): without P-gp inhibitor; for Papp (AB) / Papp (BA): 10 µM, 60 min
Method: The Madin-Darby canine kidney cells with overexpressed human multidrug-resistant gene (MDCKII-hMDR1) have been frequently used to study bidirectional transport of compounds and assess P-gp substrate potential. Apparent permeability (Papp) values were determined from the amount permeated through the MDCKII-hMDR1 cell monolayer in both the apical-basolateral (AB) and basolateral-apical (BA) direction.
MDCKII-hMDR1 cell monolayer was used for determination of permeability and P-gp substrate assessment. MDCKII-hMDR1 cells (Solvo Biotechnology, Szeged, Hungary) were grown in the controlled atmosphere (37 °C, 95% humidity, 5% CO2) in MDCK cell culture medium containing Dulbecco’s Modified Eagle Medium (DMEM) + 10% Fetal bovine serum (FBS, inactivated) + 1% glutamax-100 + 1% antibiotic/antimycotic + 1% of Non-essential amino acids Minimum Essential Medium (MEM NEAA). Cultures were split every 3–4 days using 0.05% Trypsin-EDTA. Cells were seeded 4 days prior to the experiment in concentration of 0.3 × 10^6 cells mL^−1 and cultured in CO2 incubator. On the experiment day, cell monolayers were washed with Dulbecco’s phosphate buffer saline (D-PBS) and equilibrated for 45 min in CO2 incubator in D-PBS containing 1% DMSO (1% v/v) with or without Elacridar (2 µM). Compounds, in final concentration of 10 µM, were prepared in transport medium containing Lucifer yellow (100 µM), with DMSO contentment of 1% (v/v) and in the presence and without Elacridar. Lucifer yellow calibration curve was prepared by serial dilution (12 points, with 100 µM as the highest point). Monolayer integrity was examined by fluorescent measurement on a Microplate reader Infinite F500 (Tecan) by using an excitation of 485 nm and emission of 530 nm. Experiment was started by applying the solutions containing test compounds to apical and basolateral side of the cell monolayer. Starting compound concentration (C0) was sampled at the start of the experiment and apical and basolateral compartments were sampled after incubation at 37 °C with gentle shaking for 60 min. Compound were tested in duplicate. Amprenavir was used as a control with low permeability and as a P-gp substrate without inhibitor presence, turning into a highly permeable compound with the inhibitor present.
Samples were analyzed on an ABSciex API 4000 Triple Quadrupole Mass Spectrometer (Sciex, Division of MDS Inc., Toronto, ON, Canada) coupled to a UHPLC Nexera X2 (Shimadzu, Kyoto, Japan). Samples (1 µL) were injected onto a reversed phase HPLC column Luna Omega Polar C18, 30 × 2.1 mm i.d., 1.6 µm particle size (Phenomenex) which was kept at 50 °C. Aqueous solution was 0.1% formic acid in deionized water and the organic mobile phase was […]. Flow rate was kept at 0.7 mL min^−1 for all measurements. Fast-gradient elution was as follows: 2% of organic mobile phase through 0.15 min, from 2 to 95% of organic mobile phase (0.15−0.7 min), 95% of organic mobile phase (0.7−1.1 min), from 95 to 2% of organic mobile phase (1.1−1.11 min), and re-equilibration with 98% of aqueous mobile phase (1.11−1.5 min). Positive ion mode with turbo spray, an ion source temperature of 550 °C and a dwell time of 75 ms were utilized for mass spectrometric detection. Quantitation was performed using multiple reaction monitoring (MRM) at the specific transition corresponding to the compound of interest. Warfarin was used as an internal standard. The ratios between compound and internal standard peak areas were used instead of real compound concentration. Apparent permeability coefficient, Papp (nm s^−1) values were calculated by using the following Equation (1):Papp [nm s^−1] = (dQ/dT) × (1/C0) × (1/A)(1) where: dQ/dT = permeability rate; C0 = initial concentration in donor compartment; A = surface area of the cell monolayer (0.7 cm^2). […]

[4] = Metabolic stability in human liver microsomes; assay type: in vitro ADME; settings: for t1/2: 1 µM; for In Vivo CLh / In Vivo CLh (% LBF): human; for In Vivo CLh: predicted in vivo hepatic clearance; for In Vivo CLh (% LBF): predicted, % of liver blood flow
Method: Metabolic stability of compounds was assessed in human and mouse liver microsomes (Corning, Tewksbury, MA, USA). Compounds, in final concentration of 1 µM, were incubated in phosphate buffer (50 mM, pH 7.4) for 60 min at 37 °C together with liver microsomes and NADPH generating system (nicotinamide adenine dinucleotide phosphate (NADP, 0.5 mM), glucose-6-phosphate (G6P, 5 mM), glucose-6-phosphate dehydrogenase (1.5 U mL^−1) and magnesium chloride (0.5 mM)). Also, compounds were incubated without the presence of NADPH cofactor, as a buffer stability control. Metabolic activity of liver microsomes was verified by including testosterone and propranolol as positive controls, as well as caffeine as a negative control. Sampling was performed at six time points (0, 10, 20, 30, 45 and 60 min), followed by reaction termination by addition of acetonitrile/methanol mixture (2:1, v/v) containing dicofenac as internal standard. Samples were analyzed as previously described for samples from permeability assay. The in vitro half-life (t1/2) was calculated from the slope of the linear regression by plotting ln % remaining of parent compound against incubation time. In vitro intrinsic clearance, CLint was calculated from half-life using following Equation (3):(3) CLint [µL min^−1 mg^−1]=ln2/t1/2×mL per incubation/mg protein per incubation where 52.5 mg protein/g liver is used as a constant.
Predicted in vivo hepatic clearance, in vivo CLh was calculated as follows:(4) in vivo CLh [mL min^−1 kg^−1]=CLint×(mg protein/g liver)×Q×(LW/BW) /Q+(CLint×(mg protein/g liver)×(LW/BW)) where: LW/BW = liver weight/body weight [g kg^−1]; 25.7 (human), 87.5 (mouse); Q = LBF = liver blood flow [mL min^−1 kg^−1]; 21/1.26 (human), 131/7.86 (mouse).
Predicted in vivo hepatic clearance can be expressed as %LBF and calculated as follows:(5) in vivo CLh [%LBF]=in vivo CLh/LBF×100

[5] = Chrom logD determination (fast-gradient HPLC); settings: pH 7.4

Row | IC50 [1] [µM] | IC50 [2] [µM] | Permeability classification (MDCKII-hMDR1 cells) | Efflux Ratio (BA/AB) (MDCKII-hMDR1 cells) | Papp (AB) (MDCKII-hMDR1 cells) [×10⁻⁶ cm/s] | Papp (BA) (MDCKII-hMDR1 cells) [×10⁻⁶ cm/s] | t1/2 ([4]; human liver microsomes) [min] | In Vivo CLh [4] [mL/min/kg] | In Vivo CLh (% LBF) [4] [% LBF] | Chrom logD [5] | Compound | IC50 [3] [µM] | Metabolic stability classification ([4]; human liver microsomes, in words)
1 | 9.07 ± 1.21 | 27.7 ± 3.23 | moderate AB permeability | 2.9 | 5.3 | 14.9 | 4.1 | 24.3 | 95 | 5.62 | Clc1ncnc2c1ccn2Cc1cn(-[c-]2cccc2)nn1.[Fe+2].c1cc[cH-]c1 [Compound 11c, 4-Chloro-7-[1-(1-ferrocenyl-1,2,3-triazol-1-yl)methyl]-7H-pyrrolo[2,3-d]pyrimidine] | 5.89 ± 1.88 | –
2 | 15.5 ± 3.24 | 28.97 ± 0.09 | moderate AB permeability | 10.7 | 3.2 | 33.2 | 19.0 | 20.4 | 79 | 4.15 | CC([c-]1cccc1)n1cc(Cn2cnc3ncnc(Cl)c32)nn1.[Fe+2].c1cc[cH-]c1 (stereo not shown) [Compound 15b, 6-Chloro-7-[1-(1-ferrocenyl-1-methylmethyl-1,2,3-triazol-4-yl)methyl]-7H-purine] | 0.88 ± 1.06 | –

Row | Compound | IC50 [1] [µM] | IC50 [2] [µM] | Permeability classification (MDCKII-hMDR1 cells) | Efflux Ratio (BA/AB) (MDCKII-hMDR1 cells) | Papp (AB) (MDCKII-hMDR1 cells) [×10⁻⁶ cm/s] | Papp (BA) (MDCKII-hMDR1 cells) [×10⁻⁶ cm/s] | t1/2 ([4]; human liver microsomes) [min] | In Vivo CLh [4] [mL/min/kg] | In Vivo CLh (% LBF) [4] [% LBF] | Chrom logD [5] | IC50 [3] [µM] | Metabolic stability classification ([4]; human liver microsomes, in words)
3 | Clc1ncnc2c1ncn2Cc1cn(C[c-]2cccc2)nn1.[Fe+2].c1cc[cH-]c1 [Compound 13a, 6-Chloro-9-[1-(1-ferrocenymethyl-1,2,3-triazol-4-yl)methyl]-9H-purine] | 14.4 ± 3.02 | 25.2 ± 4.31 | moderate to high AB permeability; also recorded: good permeability | 2.9 | 8.3 | 23.8 | 38.6 | 16.8 | 65 | 4.27 | 3.98 ± 0.17 | good metabolic stability; also recorded: moderately stable; also recorded: moderate stability
